Columns and labels:
[1] = target: T1, Peroxisome proliferator-activated receptor gamma (Homo sapiens, UniProt P37231); experiment: Antagonist activity at human PPARgamma receptor assessed as rosiglitazone-induced receptor activation by alphascreen assay; assay type: functional
T1 sequence (P37231 whole entry): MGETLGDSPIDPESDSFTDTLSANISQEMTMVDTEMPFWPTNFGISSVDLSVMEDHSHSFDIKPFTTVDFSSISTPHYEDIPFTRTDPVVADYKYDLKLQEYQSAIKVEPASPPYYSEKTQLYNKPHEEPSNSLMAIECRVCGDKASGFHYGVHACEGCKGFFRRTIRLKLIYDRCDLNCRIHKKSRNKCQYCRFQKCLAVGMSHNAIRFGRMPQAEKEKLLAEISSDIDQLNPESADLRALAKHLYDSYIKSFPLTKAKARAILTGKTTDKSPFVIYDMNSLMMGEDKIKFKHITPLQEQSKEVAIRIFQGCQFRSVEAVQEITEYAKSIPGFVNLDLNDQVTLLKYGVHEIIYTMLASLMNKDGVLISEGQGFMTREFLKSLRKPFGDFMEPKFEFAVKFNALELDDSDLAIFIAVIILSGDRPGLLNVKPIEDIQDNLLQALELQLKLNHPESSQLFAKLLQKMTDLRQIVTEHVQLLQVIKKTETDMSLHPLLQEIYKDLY

[2] = target: T1, Peroxisome proliferator-activated receptor gamma; experiment: Displacement of [3H]rosiglitazone from human PPARgamma receptor by scintillation proximity assay
[3] = target: T1, Peroxisome proliferator-activated receptor gamma; experiment: Antagonist activity at human PPARgamma receptor in CHO-K1 cells assessed as rosiglitazone-induced receptor activation by cell based reporter assay; assay type: functional

Row | SMILES | IC50 [1] | EC50 [2] | IC50 [3]
1 | CCc1c(C(=O)OC)cc2c(c1O)C(=O)c1c(O)cc3cc(C)c(Cl)c(OC)c3c1C2=O [CHLOROCYCLINONE A] | 160 nM | 180 nM | 7000 nM
2 | COC(=O)c1cc2c(c(O)c1C(C)OC(C)=O)C(=O)c1c(O)cc3cc(C)c(Cl)c(OC)c3c1C2=O (configuration not stated) [CHLOROCYCLINONE B] | 100 nM | 160 nM | 1400 nM
3 | COC(=O)c1cc2c(c(O)c1C(C)OC(=O)CO)C(=O)c1c(O)cc3cc(C)c(Cl)c(OC)c3c1C2=O (configuration not stated) [CHLOROCYCLINONE C] | 90 nM | 130 nM | 600 nM
4 | COc1c(Cl)c(C)cc2cc(O)c3c(c12)C(=O)c1cc2c(c(O)c1C3=O)C(C)OC2=O (configuration not stated) [CHLOROCYCLINONE D] | 320 nM | 260 nM | 4400 nM

— ChEMBL document CHEMBL1141434, “Chlorocyclinones A-D, chlorinated angucyclinones from Streptomyces sp. strongly antagonizing rosiglitazone-induced PPAR-gamma activation” (J Nat Prod, 2007)
